| SMILES | melting point |
| --- | --- |
| CNC(=NS(=O)(=O)N1CCOCC1)N1CC(c2ccccc2F)C(c2ccc(Cl)cc2)=N1 (stereo not shown) [Example 86, 3-(4-Chlorophenyl)-4-(2-fluorophenyl)-N-methyl-N′-((morpholin-4-yl)sulfonyl)-4,5-dihydro-1H-pyrazole-1-carboxamidine] | 165 to 168 °C |
| CCN(c1ccccc1)S(=O)(=O)N=C(NC)N1CC(c2ccccc2)C(c2ccc(Cl)cc2)=N1 (stereo not shown) | 145 to 147 °C |
| CN(C)S(=O)(=O)N=C(NCCF)N1CC(c2ccccc2)C(c2ccc(Cl)cc2)=N1 (stereo not shown) [Example 32, 3-(4-Chlorophenyl)-N′-((dimethylamino)sulfonyl)-N-(2-fluoroethyl)-4-phenyl-4,5-dihydro-1H-pyrazole-1-carboxamidine] | 128 to 131 °C |
| CC(C)NC(=NS(=O)(=O)N(C)C)N1CC(c2ccccc2)C(c2ccc(Cl)cc2)=N1 (stereo not shown) [Example 59, 3-(4-Chlorophenyl)-N′-((dimethylamino)sulfonyl)-N-isopropyl-4-phenyl-4,5-dihydro-1H-pyrazole-1-carboxamidine] | 169 to 170 °C |
| CCN(CC)S(=O)(=O)N=C(N(C)C)N1CC(O)(c2ccccc2)C(c2ccc(Cl)cc2)=N1 (stereo not shown) [Example 63, 3-(4-Chlorophenyl)-N′-((diethylamino)sulfonyl)-N,N-dimethyl-4-hydroxy-4-phenyl-4,5-dihydro-1H-pyrazole-1-carboxamidine] | 135 to 137 °C |
| CCN(CC)S(=O)(=O)N=C(NC)N1CC(c2ccncc2)C(c2ccc(Cl)cc2)=N1 (stereo not shown) [Example 71, N′-((Diethylamino)sulfonyl)-3-(4-chlorophenyl)-N-methyl-4-(pyridin-4-yl)-4,5-dihydro-1H-pyrazole-1-carboxamidine] | 109 to 111 °C |
| CNC(=NS(=O)(=O)N(C)C)N1CC(c2c(F)cccc2F)C(c2ccc(Cl)cc2)=N1 (stereo not shown) [Example 80, 3-(4-Chlorophenyl)-4-(2,6-difluorophenyl)-N′-((dimethylamino)sulfonyl)-N-methyl-4,5-dihydro-1H-pyrazole-1-carboxamidine] | 214 to 216 °C |
| CNC(=NS(=O)(=O)N1CCC(O)CC1)N1CC(c2ccccc2)C(c2ccc(Cl)cc2)=N1 (stereo not shown) [Example 88, 3-(4-Chlorophenyl)-N′-((4-hydroxypiperidin-1-yl)sulfonyl)-N-methyl-4-phenyl-4,5-dihydro-1H-pyrazole-1-carboxamidine] | 80 °C |
| CNC(=NS(=O)(=O)N1CCOCC1)N1CC(c2c(F)cccc2F)C(c2ccc(Cl)cc2)=N1 (stereo not shown) [Example 79, 3-(4-Chlorophenyl)-4-(2,6-difluorophenyl)-N-methyl-N′-((morpholin-4-yl)sulfonyl)-4,5-dihydro-1H-pyrazole-1-carboxamidine] | 223 to 235 °C |
| CN1CCC(NC(=NS(=O)(=O)N(C)C)N2CC(c3ccccc3)C(c3ccc(Cl)cc3)=N2)CC1 (stereo not shown) [Example 60, 3-(4-Chlorophenyl)-N′-((dimethylamino)sulfonyl)-N-(1-methylpiperidin-4-yl)-4-phenyl-4,5-dihydro-1H-pyrazole-1-carboxamidine] | 144 to 146 °C |
| CNC(=NS(=O)(=O)N(C)C)N1CC(c2cccc(C(F)(F)F)c2)C(c2ccc(Cl)cc2)=N1 (stereo not shown) | 65 to 68 °C |
| CNC(=NS(=O)(=O)N1CCCCC1)N1CC(c2ccccc2F)C(c2ccc(Cl)cc2)=N1 (stereo not shown) [Example 83, 3-(4-Chlorophenyl)-4-(2-fluorophenyl)-N-methyl-N′-((piperidin-1-yl)sulfonyl)-4,5-dihydro-1H-pyrazole-1-carboxamidine] | 223 to 225 °C |
| O=S(=O)(N=C(NC1CC1)N1CC(c2ccccc2)C(c2ccc(Cl)cc2)=N1)N1CCCCC1 (stereo not shown) [Example 56, 3-(4-Chlorophenyl)-N-cyclopropyl-4-phenyl-N′-((piperidin-1-yl)sulfonyl)-4,5-dihydro-1H-pyrazole-1-carboxamidine] | 142 to 144 °C |
| CCNC(=NS(=O)(=O)N(CC)CC)N1CC(O)(c2ccccc2)C(c2ccc(Cl)cc2)=N1 (stereo not shown) [Example 68, 3-(4-Chlorophenyl)-N′-((diethylamino)sulfonyl)-N-ethyl-4-hydroxy-4-phenyl-4,5-dihydro-1H-pyrazole-1-carboxamidine] | 162 to 165 °C |
| CSC(=NS(=O)(=O)N1CCOCC1)N1CC(c2ccccc2)C(c2ccc(Cl)cc2)=N1 (stereo not shown) | 202 to 204 °C |
| CSC(=NS(=O)(=O)N1CCCCC1)N1CC(c2ccccc2F)C(c2ccc(Cl)cc2)=N1 (stereo not shown) [Example 48, 3-(4-Chlorophenyl)-4-(2-fluorophenyl)-N-((piperidin-1-yl)sulfonyl)-4,5-dihydro-1H-pyrazole-1-carboximidothioic acid methyl ester] | 196 to 198 °C |
| CSC(=NS(=O)(=O)N1CCOCC1)N1CC(c2ccccc2F)C(c2ccc(Cl)cc2)=N1 (stereo not shown) [Example 47, 3-(4-Chlorophenyl)-4-(2-fluorophenyl)-N-((morpholin-4-yl)sulfonyl)-4,5-dihydro-1H-pyrazole-1-carboximidothioic acid methyl ester] | 205 to 207 °C |
| CCN(CC)S(=O)(=O)N=C(NC)N1CC(O)(c2ccccc2)C(c2ccc(Cl)cc2)=N1 (stereo not shown) [Example 57, 3-(4-Chlorophenyl)-N′-((diethylamino)sulfonyl)-N-methyl-4-hydroxy-4-phenyl-4,5-dihydro-1H-pyrazole-1-carboxamidine] | 180 to 182 °C |
| CNC(=NS(=O)(=O)N(C)C)N1CC(c2ccccc2F)C(c2ccc(Cl)cc2)=N1 (stereo not shown) [Example 84, 3-(4-Chlorophenyl)-N′-((dimethylamino)sulfonyl)-4-(2-fluorophenyl)-N-methyl-4,5-dihydro-1H-pyrazole-1-carboxamidine] | 173 to 175 °C |

| SMILES | melting point |
| --- | --- |
| CSC(=NS(=O)(=O)N1CCc2ccccc2C1)N1CC(c2ccccc2)C(c2ccc(Cl)cc2)=N1 (stereo not shown) [Example 38, 3-(4-Chlorophenyl)-4-phenyl-N-((1,2,3,4-tetrahydroisoquinolin-2-yl)sulfonyl)-4,5-dihydro-1H-pyrazole-1-carboximidothioic acid methyl ester] | 143 to 145 °C |
| CCCN(C)S(=O)(=O)N=C(NC)N1CC(c2ccccc2)C(c2ccc(Cl)cc2)=N1 (stereo not shown) | 132 to 134 °C |
| CCCN(CCC)S(=O)(=O)N=C(NC)N1CC(c2ccccc2)C(c2ccc(Cl)cc2)=N1 (stereo not shown) [Example 26, 3-(4-Chlorophenyl)-N′-((dipropylamino)sulfonyl)-N-methyl-4-phenyl-4,5-dihydro-1H-pyrazole-1-carboxamidine] | 141 to 142 °C |
| CNC(=NS(=O)(=O)N1CCCCC1)N1CC(c2cccc(C(F)(F)F)c2)C(c2ccc(Cl)cc2)=N1 (stereo not shown) | 168 to 170 °C |
| CSC(=NS(=O)(=O)N1CCCCC1)N1CC(c2cccnc2)C(c2ccc(Cl)cc2)=N1 (stereo not shown) [Example 45, 3-(4-Chlorophenyl)-N-((piperidin-1-yl)sulfonyl)-4-(pyridin-3-yl)-4,5-dihydro-1H-pyrazole-1-carboximidothioic acid methyl ester] | 182 to 185 °C |
| CCN(c1ccccc1)S(=O)(=O)N=C(SC)N1CC(c2ccccc2)C(c2ccc(Cl)cc2)=N1 (stereo not shown) [Example 39, 3-(4-Chlorophenyl)-N-(((ethyl)phenylamino)sulfonyl)-4-phenyl-4,5-dihydro-1H-pyrazole-1-carboximidothioic acid methyl ester] | 143 to 146 °C |
| CNC(=NS(=O)(=O)N(C)C)N1CC(c2ccncc2)C(c2ccc(Cl)cc2)=N1 (stereo not shown) [Example 74, 3-(4-Chlorophenyl)-N′-((dimethylamino)sulfonyl)-N-methyl-4-(pyridin-4-yl)-4,5-dihydro-1H-pyrazole-1-carboxamidine] | 178 to 182 °C |
| CCN(C)S(=O)(=O)N=C(NC)N1CC(c2cccnc2)C(c2ccc(Cl)cc2)=N1 (stereo not shown) | 125 to 128 °C |
| CSC(=NS(=O)(=O)N1CCOCC1)N1CC(c2c(F)cccc2F)C(c2ccc(Cl)cc2)=N1 (stereo not shown) [Example 50, 3-(4-Chlorophenyl)-4-(2,6-difluorophenyl)-N-((morpholin-4-yl)sulfonyl)-4,5-dihydro-1H-pyrazole-1-carboximidothioic acid methyl ester] | 231 to 233 °C |
| CSC(=NS(=O)(=O)N(C)C)N1CC(c2c(F)cccc2F)C(c2ccc(Cl)cc2)=N1 (stereo not shown) | 181 to 185 °C |
| CN(C)S(=O)(=O)N=C(NCC(F)(F)F)N1CC(c2ccccc2)C(c2ccc(Cl)cc2)=N1 (stereo not shown) | 158 to 159 °C |
| CSC(=NS(=O)(=O)N1CCS(=O)(=O)CC1)N1CC(c2ccccc2)C(c2ccc(Cl)cc2)=N1 (stereo not shown) [Example 53, 3-(4-Chlorophenyl)-N-((1,1-dioxidothiomorpholin-4-yl)sulfonyl)-4-phenyl-4,5-dihydro-1H-pyrazole-1-carboximidothioic acid methyl ester] | 216 to 217 °C |
| CCN(C)S(=O)(=O)N=C(SC)N1CC(c2cccnc2)C(c2ccc(Cl)cc2)=N1 (stereo not shown) [Example 44, 3-(4-Chlorophenyl)-N-(((ethyl)methylamino)sulfonyl)-4-(pyridin-3-yl)-4,5-dihydro-1H-pyrazole-1-carboximidothioic acid methyl ester] | 133 to 136 °C |
| CSC(=NS(=O)(=O)N1CCC(N2CCCCC2)CC1)N1CC(c2ccccc2)C(c2ccc(Cl)cc2)=N1 (stereo not shown) [Example 97, 3-(4-Chlorophenyl)-N-(([1,4′]bipiperidin-1′-yl)sulfonyl)-4-phenyl-4,5-dihydro-1H-pyrazole-1-carboximidothioic acid methyl ester] | 245 °C |
| CCN(C)C(=NS(=O)(=O)N1CCCCC1)N1CC(c2ccccc2)C(c2ccc(Cl)cc2)=N1 (stereo not shown) | 178 °C |
| CNC(=NS(=O)(=O)N(C)C)N1CC(c2cccnc2)C(c2ccc(Cl)cc2)=N1 (stereo not shown) [Example 72, 3-(4-Chlorophenyl)-N′-((dimethylamino)sulfonyl)-N-methyl-4-(pyridin-3-yl)-4,5-dihydro-1H-pyrazole-1-carboxamidine] | 157 to 159 °C |
| CCN(CC)S(=O)(=O)N=C(SC)N1CC(c2ccccc2)C(c2ccc(Cl)cc2)=N1 (stereo not shown) [Example 37, 3-(4-Chlorophenyl)-N-((diethylamino)sulfonyl)-4-phenyl-4,5-dihydro-1H-pyrazole-1-carboximidothioic acid methyl ester] | 141 to 143 °C |
| CNC(=NS(=O)(=O)N1CCCCC1)N1CC(c2cccnc2)C(c2ccc(Cl)cc2)=N1 (stereo not shown) [Example 78, 3-(4-Chlorophenyl)-N-methyl-N′-((piperidin-1-yl)sulfonyl)-4-(pyridin-3-yl)-4,5-dihydro-1H-pyrazole-1-carboxamidine] | 174 to 177 °C |

Reference: patent US7608718B2, “4,5-dihydro-1H-pyrazole derivatives having potent CB1-antagonistic activity” (Solvay Pharmaceuticals B.V., priority 2001, dated 2009)
